Target: Alpha-glucosidase MAL12 (Saccharomyces cerevisiae (strain ATCC 204508 / S288c), UniProt P53341)
Assay: α-Glucosidase Inhibitory Activity
Procedure: The 135 µL of 50 mM phosphate saline buffer pH (6.8) was added in the 96-well plate and 20 µL of test sample with 70% DMSO added into the wells. The solution of Enzyme 20 µL was added into the wells, and incubated the plate for 15 min. After incubation pre-read of the plate was taken by the spectra max. Afterward 25 µL of the substrate (pNPG) was added and a reading was taken on spectra max at 400 nm for 30 min. The normal reading is taken and the percent inhibition was calculated.

Alpha-glucosidase MAL12, sequence (P53341 whole entry): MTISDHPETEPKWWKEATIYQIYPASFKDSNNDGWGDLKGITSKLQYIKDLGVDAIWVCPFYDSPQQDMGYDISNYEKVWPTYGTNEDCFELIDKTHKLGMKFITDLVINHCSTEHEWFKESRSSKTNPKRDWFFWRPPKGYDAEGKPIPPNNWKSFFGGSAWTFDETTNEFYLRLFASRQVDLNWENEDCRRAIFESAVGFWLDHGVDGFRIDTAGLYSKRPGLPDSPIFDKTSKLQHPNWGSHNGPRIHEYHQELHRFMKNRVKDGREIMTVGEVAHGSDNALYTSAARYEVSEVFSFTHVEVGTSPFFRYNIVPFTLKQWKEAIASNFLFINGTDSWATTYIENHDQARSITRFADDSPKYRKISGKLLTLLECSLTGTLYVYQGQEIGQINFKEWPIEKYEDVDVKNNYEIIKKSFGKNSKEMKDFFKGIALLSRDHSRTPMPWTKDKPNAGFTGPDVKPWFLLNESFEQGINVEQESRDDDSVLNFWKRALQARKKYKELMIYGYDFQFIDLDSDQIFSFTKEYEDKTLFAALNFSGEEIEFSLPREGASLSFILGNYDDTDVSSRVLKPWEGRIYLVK

IC50	SMILES
41 µM	O=C(N/N=C/c1ccc(O)c(O)c1)c1cc2ccccc2[nH]1 [(E)-N'-(3,4-dihydroxybenzylidene)-1H-indole-2-carbohydrazide (4)]
155 µM	COc1cc(/C=N/NC(=O)c2cc3ccccc3[nH]2)ccc1O [(E)-N'-(4-hydroxy-3-methoxybenzylidene)-1H-indole-2-carbohydrazide (8)]
32.1 µM	O=C(N/N=C/c1ccc(Cl)cc1)c1cc2ccccc2[nH]1 [(E)-N'-(4-Chlorobenzylidene)-1H-indole-2-carbohydrazide (27)]
144 µM	O=C(N/N=C/c1cc(O)ccc1O)c1cc2ccccc2[nH]1 [(E)-N'-(2,5-dihydroxybenzylidene)-1H-indole-2-carbohydrazide (3)]
26.6 µM	O=C(N/N=C/c1ccc(F)c(Br)c1)c1cc2ccccc2[nH]1 [(E)-N'-(3-Bromo-4-fluorobenzylidene)-1H-indole-2-carbohydrazide (19)]
206 µM	O=C(N/N=C/c1ccc(O)cc1)c1cc2ccccc2[nH]1 [(E)-N'-(4-hydroxybenzylidene)-1H-indole-2-carbohydrazide (9)]
191 µM	COc1ccc(/C=N/NC(=O)c2cc3ccccc3[nH]2)cc1O [(E)-N'-(3-hydroxy-4-methoxybenzylidene)-1H-indole-2-carbohydrazide (11)]

The next lines start with the compound.

SMILES	IC50
O=C(N/N=C/c1cc(O)cc(O)c1)c1cc2ccccc2[nH]1 [(E)-N'-(3,5-dihydroxybenzylidene)-1H-indole-2-carbohydrazide (7)]	226 µM
O=C(N/N=C/c1cccc(O)c1O)c1cc2ccccc2[nH]1 [(E)-N'-(2,3-dihydroxybenzylidene)-1H-indole-2-carbohydrazide (6)]	86.5 µM
O=C(N/N=C/c1cc(O)c(O)c(O)c1)c1cc2ccccc2[nH]1 [(E)-N'-(3,4,5-trihydroxybenzylidene)-1H-indole-2-carbohydrazide (1)]	2.3 µM
O=C(N/N=C/c1ccccc1O)c1cc2ccccc2[nH]1 [(E)-N'-(2-hydroxybenzylidene)-1H-indole-2-carbohydrazide (10)]	42.6 µM
COc1ccc(/C=N/NC(=O)c2cc3ccccc3[nH]2)c(I)c1O [(E)-N'-(3-hydroxy-2-iodo-4-methoxybenzylidene)-1H-indole-2-carbohydrazide (14)]	54.6 µM
O=C(N/N=C/c1c(O)cc(O)cc1O)c1cc2ccccc2[nH]1 [(E)-N'-(2,4,6-trihydroxybenzylidene)-1H-indole-2-carbohydrazide (2)]	49.2 µM
COc1ccc(O)c(/C=N/NC(=O)c2cc3ccccc3[nH]2)c1 [(E)-N'-(2-hydroxy-5-methoxybenzylidene)-1H-indole-2-carbohydrazide (13)]	49.2 µM

Reference: BindingDB's records for doi:10.1016/j.bioorg.2015.09.001 (Universiti Teknologi Mara (Uitm), 2015)
